Test results published in patent US20200390766A1, “PHARMACEUTICAL COMPOSITION” (Kowa Company, Ltd., priority 2019, published 2020).

Legend:
Assay type in all cases: in vivo, male ICR mice
[1] = tested on: pulmonary fibrosis model mice exposed to bleomycin in the trachea; assay: Preventive effect on pulmonary fibrosis (Example 1): lung wet weight; settings: FIG. 1; for lung weight as compared to the normal group: lungs extracted 21 days after exposure
Method: (§1) Compound A was dissolved in a 0.5% aqueous solution of methylcellulose (methylcellulose: Shin-Etsu Chemical Co., Ltd., distilled water: Otsuka Pharmaceutical Factory, Inc.) to prepare a sample solution. Further, losartan (Tokyo Chemical Industry Co., Ltd.) was dissolved in a 0.5% aqueous solution of methylcellulose to prepare a sample solution. Furthermore, pirfenidone (Ark Pharma Inc.) was dissolved in a 0.5% aqueous solution of methylcellulose to prepare a sample solution.
(§2) 6-week-old male ICR mice (Japan SLC, Inc.) were exposed to bleomycin (Nippon Kayaku Co., Ltd.) (1.5 mg/kg) dissolved in physiological saline in the trachea to prepare pulmonary fibrosis model mice.
Investigation was conducted in mice not exposed to bleomycin (exposed to physiological saline in the trachea) in the normal group (6 mice), and pulmonary fibrosis model mice exposed to bleomycin in the trachea divided into 4 groups (control, compound A 50 mg/kg/day, losartan 50 mg/kg/day, and pirfenidone 400 mg/kg/day; 10 mice in each group). From the day after exposure to bleomycin, a 0.5% aqueous solution of methylcellulose was orally administered (administered twice a day) to the normal group and the control group, the sample solution of compound A prepared above was orally administered (administered once a day) to the compound A administration group, the sample solution of losartan prepared above was orally administered (administered once a day) to the losartan administration group, and the sample solution of pirfenidone prepared above was orally administered (administered twice a day) to the pirfenidone administration group, respectively. Twenty-one days after the bleomycin exposure, the mice were anesthetized and whole lung tissues were extracted.
After washing the lung tissue extracted from the mouse with physiological saline, water was removed with a filter paper, and the wet weight was measured.

[2] = tested on: pulmonary fibrosis model mice exposed to bleomycin in the trachea; assay: Preventive effect on pulmonary fibrosis (Example 1): amount of hydroxyproline in the lungs; settings: 50 mg/kg/day oral once a day from the day after bleomycin exposure, day 21, FIG. 2; for amount of hydroxyproline in the lungs as compared to the control group: Dunnett test
Method: as §1, §2
(§3) Investigation was conducted in mice not exposed to bleomycin (exposed to physiological saline in the trachea) in the normal group (6 mice), and pulmonary fibrosis model mice exposed to bleomycin in the trachea divided into 4 groups (control, compound A 50 mg/kg/day, losartan 50 mg/kg/day, and pirfenidone 400 mg/kg/day; 10 mice in each group). […]
The lung tissue extracted from the mouse was homogenized in a PBS solution, then mixed with an equal volume of 12N hydrochloric acid in a tube, and incubated at 110° C. for 20 to 24 hours. […] 10 μL of the sample was added with 100 μL of chloramine T solution (1.4% chloramine T, 10% n-propanol, 80% citrate acetate buffer) and incubated at room temperature for 20 minutes, then added with 100 μL of Ehrlich's reagent (1 M p-dimethylamino benzaldehyde, 20% perchloric acid, 50% n-propanol) and incubated at 65° C. for 15 minutes, and the absorbance at 550 nm was measured to quantify the amount of hydroxyproline.

[3] = tested on: pulmonary fibrosis model mice exposed to bleomycin in the trachea; assay: Therapeutic effect on pulmonary fibrosis (Example 2): amount of hydroxyproline in the lungs; settings: day 21, Dunnett test, FIG. 3
Method: The lung tissue extracted from the mouse was homogenized in a PBS solution, then mixed with an equal volume of 12N hydrochloric acid in a tube, and incubated at 110° C. for 20 to 24 hours. After the incubation, the solution was volatilized by opening the tube and continuing the incubation. Thereafter, the resulting mixture was suspended in a citrate acetate buffer (5% citric acid, 1.2% glacial acetic acid, 7.25% sodium acetate, 3.4% sodium hydroxide, pH 6.0), and the solution filtered with a 0.45 μm diameter centrifugal filter was used as a sample. 10 μL of the sample was added with 100 μL of chloramine T solution (1.4% chloramine T, 10% n-propanol, 80% citrate acetate buffer) and incubated at room temperature for 20 minutes, then added with 100 μL of Ehrlich's reagent (1 M p-dimethylamino benzaldehyde, 20% perchloric acid, 50% n-propanol) and incubated at 65° C. for 15 minutes, and the absorbance at 550 nm was measured to quantify the amount of hydroxyproline.
Compound A was dissolved in a 0.5% aqueous solution of methylcellulose (methylcellulose: Shin-Etsu Chemical Co., Ltd., distilled water: Otsuka Pharmaceutical Factory, Inc.) to prepare a sample solution. Further, losartan (Tokyo Chemical Industry Co., Ltd.) was dissolved in a 0.5% aqueous solution of methylcellulose to prepare a sample solution. Furthermore, pirfenidone (Ark Pharma Inc.) was dissolved in a 0.5% aqueous solution of carboxymethyl cellulose (carboxymethyl cellulose: Maruishi Pharmaceutical Co., Ltd.) to prepare a sample solution.
Model mice were prepared in the same manner as in Example 1.
as §3
The amount of hydroxyproline in the mice was measured by the same method as in Example 1.

[4] = 50 mg/kg/day oral once a day from the day after bleomycin exposure
[5] = 50 mg/kg/day oral once a day from the 7th day after bleomycin exposure

Compound | lung weight as compared with the control group ([1]; 50 mg/kg/day oral once a day from the day after bleomycin exposure, day 21, Dunnett test) | lung weight as compared to the normal group [1, 4] | amount of hydroxyproline in the lungs as compared to the control group [2] | decrease of hydroxyproline in the lung relative to the losartan administration group [2] | amount of hydroxyproline in the lungs as compared to the control group [3, 5] | lung weight as compared to the normal group ([1]; 400 mg/kg/day oral twice a day from the day after bleomycin exposure) | amount of hydroxyproline in the lungs as compared to the control group ([3]; 400 mg/kg/day oral twice a day from the 7th day after bleomycin exposure)
CCCc1nc(C(C)C)n(-c2ncc(OCC)cn2)c(=O)c1Cc1ccc(-c2ccccc2-c2noc(=O)[nH]2)nc1 [compound A, 3-[2-(5-{[1-(5-ethoxypyrimidin-2-yl)-2-isopropyl-6-oxo-4-propyl-1,6-dihydropyrimidin-5-yl]methyl}pyridin-2-yl)phenyl]-1,2,4-oxadiazol-5(4H)-one] | significant decrease in lung weight | no significant increase in lung weight | significant decrease in hydroxyproline in the lung | larger decrease than the losartan administration group | significant decrease in hydroxyproline in the lung |  | 
CCCCc1nc(Cl)c(CO)n1Cc1ccc(-c2ccccc2-c2nn[nH]n2)cc1 [losartan] |  | significant increase in lung weight | significant decrease in hydroxyproline in the lung |  | no significant difference |  | 
Cc1ccc(=O)n(-c2ccccc2)c1 [pirfenidone] |  |  |  |  |  | significant increase in lung weight | no significant difference
